The nature of this data set: solvent given as SMILES.

With `O=C(O)CCCCCC(=O)O`, the “solvation free energy, 298 K” value (in CCO) was -59.6 kJ/mol and the “solvation free energy, 298 K” value (in CCOCC) was -53.7 kJ/mol.
On to `O=C(O)c1cccc(C(=O)O)c1`, for which the “solvation free energy, 298 K” value is, setting by setting: (in CC(C)O) -57.5 kJ/mol; (in CCC(C)O) -55.8 kJ/mol; (in CCCCCCO) -55.1 kJ/mol; (in CCCCO) -56.5 kJ/mol; (in CCCO) -57.1 kJ/mol; (in CCCOC(C)=O) -52.3 kJ/mol. The “solvation free energy, 298 K” value is -64.7 kJ/mol (in CN1CCCC1=O), -59 kJ/mol (in CO) and -47.2 kJ/mol (in O).
For the compound `CC(=O)Nc1ccccc1`, the “solvation free energy, 298 K” value is, setting by setting: (in C1COCCO1) -49.2 kJ/mol; (in O) -41 kJ/mol.
Turning to `CCCC(C)(C)O`, the “solvation free energy, 298 K” value (in CCCCCCCC) was -19.2 kJ/mol; the “solvation free energy, 298 K” value (in CCCCCCCCCC) is -19 kJ/mol; the “solvation free energy, 298 K” value (in O) was -16.4 kJ/mol.
Regarding `CC(C)(C)C`, the “solvation free energy, 298 K” value is, setting by setting: (in C1COCCO1) -9.04 kJ/mol; (in CC(C)=O) -9.29 kJ/mol; (in CCCCCC) -11.6 kJ/mol; (in CCO) -9.2 kJ/mol; (in CO) -7.99 kJ/mol; (in O) 11.1 kJ/mol.
For `COc1cccc(OC)c1O`, the “solvation free energy, 298 K” value (in O) is -29.1 kJ/mol.
For the compound `Nc1ccc([N+](=O)[O-])cc1Cl`, where the note is “in O”, the “solvation free energy, 298 K” value was -36.6 kJ/mol.
For `CCCN(CCC)c1c([N+](=O)[O-])cc(S(C)(=O)=O)cc1[N+](=O)[O-]`, the “solvation free energy, 298 K” value (in O) was -33.4 kJ/mol.
In the case of `CC12C=CC(C1)C(C)(C)C2` (centres undefined), the “solvation free energy, 298 K” value (in O) is 2.68 kJ/mol.
The same measure, in the same setting: with `CCCCC(C)O` (centres undefined) the figure was -17.9 kJ/mol; with `CCC(CC)CO`, -15.6 kJ/mol.
Turning to `COc1cc(NS(=O)(=O)c2ccc(N)cc2)nc(OC)n1`, for the setting “in O”, the “solvation free energy, 298 K” value is -79.1 kJ/mol.
As for `CCN(N=O)C(C)C`, the “solvation free energy, 298 K” value (in O) was -22.8 kJ/mol.
Regarding `[2H][2H]`, the “solvation free energy, 298 K” value (in Brc1ccccc1) stood at 7.36 kJ/mol; the “solvation free energy, 298 K” value (in C1CCOC1) was determined as 6.15 kJ/mol; the “solvation free energy, 298 K” value (in C1COCCO1) is 7.2 kJ/mol; the “solvation free energy, 298 K” value (in CC(C)(C)O) was found to be 6.11 kJ/mol; the “solvation free energy, 298 K” value (in CC(C)CC(C)(C)C) worked out at 5.31 kJ/mol; the “solvation free energy, 298 K” value (in CC(C)CO) amounted to 6.4 kJ/mol. Further, the “solvation free energy, 298 K” value stood at 6.44 kJ/mol (in CCC(C)O); 5.31 kJ/mol (in CCCCCCC); 5.61 kJ/mol (in CCCCCCCC); 6.4 kJ/mol (in CCCCO); 6.9 kJ/mol (in Clc1ccccc1); 9.87 kJ/mol (in O). The “solvation free energy, 298 K” value stood at 7.11 kJ/mol (in O=C1CCCC1) and 7.24 kJ/mol (in O=C1CCCCC1).
Take `ClCc1ccccc1`: the “solvation free energy, 298 K” value (in C1COCCO1) was -30.3 kJ/mol; the “solvation free energy, 298 K” value (in CC(C)(C)O) is -25.4 kJ/mol; the “solvation free energy, 298 K” value (in CC(C)O) was -25.1 kJ/mol; the “solvation free energy, 298 K” value (in CCCCO) is -25.4 kJ/mol; the “solvation free energy, 298 K” value (in CCCO) is -25.4 kJ/mol; the “solvation free energy, 298 K” value (in CCO) is -26 kJ/mol. For the same compound, the “solvation free energy, 298 K” value is, setting by setting: (in CO) -26.7 kJ/mol; (in O) -7.87 kJ/mol.
Take `CCCCCCC(C)=O`: the “solvation free energy, 298 K” value reads like this: (in C1COCCO1) -28.6 kJ/mol; (in CCCCCCC) -23.8 kJ/mol; (in CN(C)C=O) -26.1 kJ/mol; (in ClC(Cl)(Cl)Cl) -28 kJ/mol; (in NC=O) -21.2 kJ/mol; (in O) -12.2 kJ/mol.
For `CCCCC(O)CC` (centres undefined), the “solvation free energy, 298 K” value (in O) was -16.5 kJ/mol.
Turning to `Sc1ccccc1`, the “solvation free energy, 298 K” value (in O) was -10.7 kJ/mol.
Regarding `Cc1ccc(C)cc1`, the “solvation free energy, 298 K” value is, setting by setting: (in CC#N) -21.6 kJ/mol; (in CC(C)CC(C)(C)C) -22.6 kJ/mol; (in CC(C)CO) -20.7 kJ/mol; (in CC(O)CO) -17.3 kJ/mol; (in CCCCCCC) -22.8 kJ/mol; (in CCCCCCCCCCCCCCCC) -22 kJ/mol. The “solvation free energy, 298 K” value runs as follows: (in CCCCCCCCO) -21.6 kJ/mol; (in CCCCOC(C)=O) -25.5 kJ/mol; (in CCO) -21.3 kJ/mol; (in CNC=O) -20.1 kJ/mol; (in COCCO) -21.2 kJ/mol; (in ClC(Cl)(Cl)Cl) -24 kJ/mol. Also, the “solvation free energy, 298 K” value (in ClCCCl) is -24.9 kJ/mol; the “solvation free energy, 298 K” value (in NC=O) was -13.7 kJ/mol; the “solvation free energy, 298 K” value (in NCCO) is -16.1 kJ/mol; the “solvation free energy, 298 K” value (in O) was -3.14 kJ/mol; the “solvation free energy, 298 K” value (in O=CN1CCOCC1) is -20.8 kJ/mol; the “solvation free energy, 298 K” value (in OCCO) was -14.2 kJ/mol. The “solvation free energy, 298 K” value reads like this: (in OCCOCCO) -17.7 kJ/mol; (in OCCOCCOCCO) -18.3 kJ/mol.
On to `O=Cc1ccncc1`, for which, for the setting “in O”, the “solvation free energy, 298 K” value was -29.3 kJ/mol.
As for `CN(C)C`, the “solvation free energy, 298 K” value is -10.7 kJ/mol (in CC(C)=O); -11 kJ/mol (in CCCCCC); -10.2 kJ/mol (in CCCCCCC); -12.2 kJ/mol (in CCCCO); -14.6 kJ/mol (in CCCO); -15.2 kJ/mol (in CCO). For the same compound, the “solvation free energy, 298 K” value is -10.1 kJ/mol (in CN(C)C=O), -12.1 kJ/mol (in ClC(Cl)(Cl)Cl), -16.3 kJ/mol (in ClC(Cl)Cl) and -13.4 kJ/mol (in O).
With `S=C=S`, the “solvation free energy, 298 K” value was -14.9 kJ/mol (in C1CCCC1); -12.7 kJ/mol (in C1COCCO1); -12.8 kJ/mol (in CC(C)=O); -13.6 kJ/mol (in CC(C)CC(C)(C)C); -13 kJ/mol (in CCC(C)=O); -13.9 kJ/mol (in CCCCCCC). In addition, the “solvation free energy, 298 K” value runs as follows: (in CCCCCCCC) -13.8 kJ/mol; (in CCCCCCCCO) -13 kJ/mol; (in CCCCCO) -13.8 kJ/mol; (in CCCCO) -12.9 kJ/mol; (in CCO) -13 kJ/mol; (in CCOC(C)=O) -13.1 kJ/mol. For the same compound, the “solvation free energy, 298 K” value is -12.6 kJ/mol (in CN(C)C=O); -14.9 kJ/mol (in Cc1ccc(C)cc1); -15.1 kJ/mol (in ClC(Cl)(Cl)Cl); -14.7 kJ/mol (in ClC(Cl)=C(Cl)Cl); -13.8 kJ/mol (in ClCCCl); -13.3 kJ/mol (in N#Cc1ccccc1). Further, the “solvation free energy, 298 K” value (in O) amounted to 0.669 kJ/mol; the “solvation free energy, 298 K” value (in O=C1CCCCC1) is -13.8 kJ/mol; the “solvation free energy, 298 K” value (in c1ccccc1) is -15.1 kJ/mol.
As to `O=S1OCC2C(CO1)C1(Cl)C(Cl)=C(Cl)C2(Cl)C1(Cl)Cl` (centres undefined), for the setting “in CCCCCCCCO”, the “solvation free energy, 298 K” value was -54.4 kJ/mol.
Consider `CCOP(=S)(OCC)SCSP(=S)(OCC)OCC`, for which, for the setting “in O”, the “solvation free energy, 298 K” value was -25.5 kJ/mol.
For the compound `CC(=O)NS(=O)(=O)c1ccc(N)cc1`, where the note is “in O”, the “solvation free energy, 298 K” value is -76.8 kJ/mol.
As to `Cc1ccccc1C(=O)O`, the “solvation free energy, 298 K” value was -38.9 kJ/mol (in C1CCOC1); -38.7 kJ/mol (in C1COCCO1); -38.2 kJ/mol (in CC(C)(C)O); -37.4 kJ/mol (in CC(C)CCO); -36.9 kJ/mol (in CC(C)CO); -37.9 kJ/mol (in CC(C)O). Besides, the “solvation free energy, 298 K” value is, setting by setting: (in CC(C)OC(C)C) -35.8 kJ/mol; (in CCC(C)O) -37.7 kJ/mol; (in CCCC(C)O) -37.6 kJ/mol; (in CCCCCCCCCCO) -36.4 kJ/mol; (in CCCCCCCCO) -36.7 kJ/mol; (in CCCCCCCO) -36.9 kJ/mol. Moreover, the “solvation free energy, 298 K” value is, setting by setting: (in CCCCCCO) -37.1 kJ/mol; (in CCCCCO) -37.3 kJ/mol; (in CCCCCOC(C)=O) -36.4 kJ/mol; (in CCCCO) -37.5 kJ/mol; (in CCCCOC(C)=O) -36.7 kJ/mol; (in CCCO) -37.7 kJ/mol. The “solvation free energy, 298 K” value reads like this: (in CCO) -38.2 kJ/mol; (in CCOC(C)=O) -37.3 kJ/mol; (in CCOCC) -37.4 kJ/mol; (in COC(C)=O) -37.3 kJ/mol; (in O) -24.6 kJ/mol.
For the compound `Clc1ccc(-c2cc(Cl)ccc2Cl)cc1`, where the note is “in CCCCCCCCO”, the “solvation free energy, 298 K” value was -45.3 kJ/mol.
For the compound `Cc1cccc(C(C)C)c1`, the “solvation free energy, 298 K” value (in O) is -3.01 kJ/mol.
For `CC(=O)OCC1=CCC2CC1C2(C)C` (centres undefined), for the setting “in O”, the “solvation free energy, 298 K” value is -15.1 kJ/mol.
On to `CCC(CC)(CC)CC`, for which the “solvation free energy, 298 K” value (in CCCCCC) was -24.6 kJ/mol and the “solvation free energy, 298 K” value (in CO) was -18 kJ/mol.
As to `CCc1ccccn1`, the “solvation free energy, 298 K” value (in O) was -18.1 kJ/mol.
In the case of `II`, the “solvation free energy, 298 K” value reads like this: (in Brc1ccccc1) -25.5 kJ/mol; (in CC(C)CC(C)(C)C) -18.8 kJ/mol; (in CCCCCC) -19.5 kJ/mol; (in CCCCCCC) -19.5 kJ/mol; (in CCCCCl) -23.6 kJ/mol; (in CCO) -26.2 kJ/mol. For the same compound, the “solvation free energy, 298 K” value (in Cc1ccc(C)cc1) was -26 kJ/mol; the “solvation free energy, 298 K” value (in Cc1cccc(C)c1) is -26.2 kJ/mol; the “solvation free energy, 298 K” value (in Cc1ccccc1C) is -26.1 kJ/mol; the “solvation free energy, 298 K” value (in ClC(Cl)(Cl)Cl) is -22 kJ/mol; the “solvation free energy, 298 K” value (in ClC(Cl)Cl) was -24 kJ/mol; the “solvation free energy, 298 K” value (in ClCCCl) is -23.9 kJ/mol. Besides, the “solvation free energy, 298 K” value was -23.5 kJ/mol (in ClCCl), -24.3 kJ/mol (in Clc1ccccc1) and -10.6 kJ/mol (in O).

Values taken from the CombiSolv-Exp solvation set (Vermeire and Green 2021).
